Structures can show the parent of a compound that is named as a salt.
The molecules below were run against Full length KDM2B (Homo sapiens (Human), UniProt Q8NHM5) (assay: KDM2B TR-FRET assay for determining inhibitor IC50). Conditions: TR-FRET (HTRF), biotin-H3K36me2 peptide substrate, 2-OG 0.3 μM or 6 μM.
Format: biochemical
Text: KDM2B TR-FRET Assay for Determining Inhibitor IC50
The KDM2B TR-FRET Assay described above represents an additional embodiment of the invention.

Chain of Full length KDM2B (Q8NHM5 whole entry): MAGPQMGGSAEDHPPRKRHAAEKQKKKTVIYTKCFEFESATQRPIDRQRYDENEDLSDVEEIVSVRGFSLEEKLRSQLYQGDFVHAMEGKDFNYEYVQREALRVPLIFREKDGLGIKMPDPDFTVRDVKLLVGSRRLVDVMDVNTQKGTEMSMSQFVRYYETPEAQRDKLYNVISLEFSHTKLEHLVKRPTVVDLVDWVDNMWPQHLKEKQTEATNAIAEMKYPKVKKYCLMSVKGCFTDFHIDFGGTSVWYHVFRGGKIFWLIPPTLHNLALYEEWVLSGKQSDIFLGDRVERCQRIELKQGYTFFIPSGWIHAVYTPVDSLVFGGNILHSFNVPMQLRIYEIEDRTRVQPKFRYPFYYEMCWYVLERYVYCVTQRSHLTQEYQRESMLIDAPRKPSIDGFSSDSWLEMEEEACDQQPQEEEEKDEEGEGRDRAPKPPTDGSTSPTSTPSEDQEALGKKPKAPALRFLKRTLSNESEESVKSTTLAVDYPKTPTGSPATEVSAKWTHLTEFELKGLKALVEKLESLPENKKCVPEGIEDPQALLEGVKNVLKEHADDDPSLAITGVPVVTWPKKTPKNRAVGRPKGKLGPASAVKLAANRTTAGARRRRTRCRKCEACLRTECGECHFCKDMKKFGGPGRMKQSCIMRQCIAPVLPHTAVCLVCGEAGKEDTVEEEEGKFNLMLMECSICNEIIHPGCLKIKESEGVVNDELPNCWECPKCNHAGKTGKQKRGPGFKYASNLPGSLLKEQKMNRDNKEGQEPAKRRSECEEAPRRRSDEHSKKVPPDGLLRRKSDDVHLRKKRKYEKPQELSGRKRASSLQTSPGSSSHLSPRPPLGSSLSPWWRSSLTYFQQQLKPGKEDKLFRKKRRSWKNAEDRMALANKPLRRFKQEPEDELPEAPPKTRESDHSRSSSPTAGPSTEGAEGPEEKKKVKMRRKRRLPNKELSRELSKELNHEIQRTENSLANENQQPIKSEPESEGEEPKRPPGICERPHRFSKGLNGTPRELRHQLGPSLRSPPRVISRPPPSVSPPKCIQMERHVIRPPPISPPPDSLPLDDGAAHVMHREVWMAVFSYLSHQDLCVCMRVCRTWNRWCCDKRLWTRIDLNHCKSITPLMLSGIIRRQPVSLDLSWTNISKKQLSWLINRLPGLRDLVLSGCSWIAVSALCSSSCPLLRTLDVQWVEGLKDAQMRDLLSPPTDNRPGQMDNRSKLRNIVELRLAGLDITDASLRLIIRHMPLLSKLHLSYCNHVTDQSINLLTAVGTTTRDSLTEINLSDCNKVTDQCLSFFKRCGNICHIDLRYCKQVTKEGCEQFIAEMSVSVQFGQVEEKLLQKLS

Question: For `O=C(c1cccc2ccccc12)C1CCCN(CC2CC2)C1` (centres unmarked) [Example 126, (1-(cyclopropylmethyl)piperidin-3-yl)(naphthalen-1-yl)methanone], which IC50 is on record?
Answer: Its IC50 is 3800 nM.

Question: For `O=C(c1ccc(F)c2ccccc12)C1CCCN(CC2CC2)C1` (centres unmarked) [Example 127, (1-(cyclopropylmethyl)piperidin-3-yl)(4-fluoronaphthalen-1-yl)methanone hydrochloride], which IC50 is on record?
Answer: The IC50 was 1900 nM.

Question: `O=C(c1ccc2ccccc2c1F)C1CCCN(CC2CC2)C1` (centres unmarked) [Example 128, (1-(cyclopropylmethyl)piperidin-3-yl)(1-fluoronaphthalen-2-yl)methanone] was tested. Which IC50 did it give?
Answer: The IC50 was 133 nM.

Question: `Cc1noc2cc(C(=O)C3CCCN(CC4CC4)C3)ccc12` (centres unmarked) [Example 129, (1-(cyclopropylmethyl)piperidin-3-yl)(3-methylbenzo[d]isoxazol-6-yl)methanone] was tested. Which IC50 did it give?
Answer: The IC50 was 492 nM.

Question: How did the IC50 turn out when `Cn1c(=O)n(C)c2cc(C(=O)C3CCCN(CC4CC4)C3)ccc21` (centres unmarked) [Example 130, 5-(1-(cyclopropylmethyl)piperidine-3-carbonyl)-1,3-dimethyl-1H-benzo[d]imidazol-2-one] was run?
Answer: Its IC50 is 442 nM.

Question: How did the IC50 turn out when `O=C(c1ccc2c(c1)CCCCC2)C1CCCN(C2CCC2)C1` (centres unmarked) [Example 132, (1-cyclobutylpiperidin-3-yl)(6,7,8,9-tetrahydro-5H-benzo[7]annulen-2-yl)methanoe] was run?
Answer: The IC50 was 55.3 nM.

Question: `O=C(c1ccc2c(c1)CCCC2)C1CCCN(C2CCC2)C1` (centres unmarked) [Example 133, (1-cyclobutyl-3-piperidyl)-tetralin-6-yl-methanone] was tested. Which IC50 did it give?
Answer: Its IC50 is 103 nM.

Question: With `O=C(c1ccc2cnccc2c1)C1CCCN(C2CCC2)C1` (centres unmarked) [Example 135] as the molecule, how does the IC50 read?
Answer: The IC50 was 226 nM.

Question: How did the IC50 turn out when `COc1ccc2cc(C(=O)C3CN(CC4CC4)CCC3c3ccccc3)ccc2c1` (centres unmarked) [Example 145, (1-(cyclopropylmethyl)-4-phenylpiperidin-3-yl)(6-methoxynaphthalen-2-yl)methanone] was run?
Answer: The IC50 was 312 nM.

Question: `CS(=O)(=O)N1CCc2cc(C(=O)C3CCCN(C4CCC4)C3)ccc2C1` (centres unmarked) [Example 149, (1-cyclobutylpiperidin-3-yl)(2-(methylsulfonyl)-1,2,3,4-tetrahydroisoquinolin-6-yl)methanone] was tested. Which IC50 did it give?
Answer: Its IC50 is 163 nM.

Question: For `O=C(c1ccc2c(O)cccc2c1)C1CCCN(CC2CC2)C1` (centres unmarked) [Example 150, (1-(cyclopropylmethyl)piperidin-3-yl)(5-hydroxynaphthalen-2-yl)methanone], which IC50 is on record?
Answer: The IC50 was 133 nM.

Question: `O=C(c1ccc2cc(CO)ccc2c1)C1CCCN(CC2CC2)C1` (centres unmarked) [Example 152, (1-(cyclopropylmethyl)piperidin-3-yl)(6-(hydroxymethyl)naphthalen-2-yl)methanone] was tested. Which IC50 did it give?
Answer: The IC50 was 234 nM.

Question: How did the IC50 turn out when `O=C(c1ccc2cc(CO)ccc2c1)C1CCCN(C2CCC2)C1` (centres unmarked) [Example 153, (1-cyclobutylpiperidin-3-yl)(6-(hydroxymethyl)naphthalen-2-yl)methanone] was run?
Answer: The IC50 was 409 nM.

Question: Which IC50 does the source give for `O=C(c1ccc2cc(CO)ccc2c1)C1CCCN(C2CCCC2)C1` (centres unmarked) [Example 154, (1-cyclopentylpiperidin-3-yl)(6-(hydroxymethyl)naphthalen-2-yl)methanone] here?
Answer: Its IC50 is 183 nM.

Question: `COc1ccc2cc(C(=O)C3CC(O)CN(CC4CC4)C3)ccc2c1` (centres unmarked) [Example 155, (1-(cyclopropylmethyl)-5-hydroxypiperidin-3-yl)(6-methoxynaphthalen-2-yl)methanone] was tested. Which IC50 did it give?
Answer: The IC50 was 779 nM.

Question: Which IC50 does the source give for `N#Cc1ccc2cc(C(=O)C3CCCN(CC4CC4)C3)ccc2c1` (centres unmarked) [Example 159, 6-(1-(cyclopropylmethyl)piperidine-3-carbonyl)-2-naphthonitrile] here?
Answer: Its IC50 is 68.8 nM.

Question: `CC1CCN(C2CCCC2)CC1C(=O)c1ccc2cc(C#N)ccc2c1` (centres unmarked) [Example 162a, 6-(1-cyclopentyl-4-methylpiperidine-3-carbonyl)-2-naphthonitrile] was tested. Which IC50 did it give?
Answer: Its IC50 is 814 nM.

Question: For `CC1CC1CN1CCCC(C(=O)c2ccc3cc(C#N)ccc3c2)C1` (centres unmarked) [Example 164, 6-(1-((2-methylcyclopropyl)methyl)piperidine-3-carbonyl)-2-naphthonitrile], which IC50 is on record?
Answer: The IC50 was 436 nM.

Question: For `Cc1ccc2cc(C(=O)C3CCCN(C4CCC4)C3)ccc2c1` (centres unmarked) [Example 165, (1-cyclobutylpiperidin-3-yl)(6-methylnaphthalen-2-yl)methanone hydrochloride], which IC50 is on record?
Answer: Its IC50 is 163 nM.

Question: `Cc1ccc2cc(C(=O)C3CCCN(C4CCCC4)C3)ccc2c1` (centres unmarked) [Example 166, (1-cyclopentylpiperidin-3-yl)(6-methylnaphthalen-2-yl)methanone] was tested. Which IC50 did it give?
Answer: The IC50 was 240 nM.

Question: `CS(=O)(=O)c1ccc2cc(C(=O)C3CCCN(CC4CC4)C3)ccc2c1` (centres unmarked) [Example 169, (1-(cyclopropylmethyl)piperidin-3-yl)(6-(methylsulfonyl)naphthalen-2-yl)methanone] was tested. Which IC50 did it give?
Answer: The IC50 was 112 nM.

Question: For `CS(=O)(=O)c1ccc2cc(C(=O)C3CCCN(C4CCC4)C3)ccc2c1` (centres unmarked) [Example 170, (1-cyclobutylpiperidin-3-yl)(6-(methylsulfonyl)naphthalen-2-yl)methanone], which IC50 is on record?
Answer: The IC50 was 42.6 nM.

Question: `CS(=O)(=O)c1ccc2cc(C(=O)C3CCCN(C4CCCC4)C3)ccc2c1` (centres unmarked) [Example 171, (1-cyclopentylpiperidin-3-yl)(6-(methylsulfonyl)naphthalen-2-yl)methanone] was tested. Which IC50 did it give?
Answer: Its IC50 is 102 nM.

Question: Which IC50 does the source give for `Cc1ccc2cc(C(=O)C3CCCN(CC4CC4)C3)ccc2n1` (centres unmarked) [Example 173] here?
Answer: The IC50 was 255 nM.

Question: For `O=C(Nc1ccc2cc(C(=O)C3CCCN(CC4CC4)C3)ccc2c1)C1CC1` (centres unmarked) [Example 175], which IC50 is on record?
Answer: The IC50 was 355 nM.

Question: For `CN(C)C(=O)c1ccc2cc(C(=O)C3CCCN(CC4CC4)C3)ccc2c1` (centres unmarked) [Example 176, 6-(1-(cyclopropylmethyl)piperidine-3-carbonyl)-N,N-dimethyl-2-naphthamide], which IC50 is on record?
Answer: Its IC50 is 214 nM.

Question: How did the IC50 turn out when `CN(C)C(=O)c1ccc2cc(C(=O)C3CCCN(C4CCC4)C3)ccc2c1` (centres unmarked) [Example 177, 6-(1-cyclobutylpiperidine-3-carbonyl)-N,N-dimethyl-2-naphthamide] was run?
Answer: The IC50 was 113 nM.

Question: For `CN(C)C(=O)c1ccc2cc(C(=O)C3CCCN(C4CCCC4)C3)ccc2c1` (centres unmarked) [Example 178], which IC50 is on record?
Answer: Its IC50 is 188 nM.

Question: With `COc1ccc2cc(C(=O)C3CCCN(CC4CC4)C3)ccc2c1CO` (centres unmarked) [Example 188, (1-(cyclopropylmethyl)piperidin-3-yl)(5-(hydroxymethyl)-6-methoxynaphthalen-2-yl)methanone hydrochloride] as the molecule, how does the IC50 read?
Answer: Its IC50 is 133 nM.

Question: Which IC50 does the source give for `COc1ccc2cc(C(=O)C3CCCN(C4CCC4)C3)ccc2c1CO` (centres unmarked) [Example 189, (1-cyclobutylpiperidin-3-yl)(5-(hydroxymethyl)-6-methoxynaphthalen-2-yl)methanone hydrochloride] here?
Answer: The IC50 was 55.3 nM.

Question: How did the IC50 turn out when `CCN1CCN(C2CCC2)CC1C(=O)c1ccc2cc(OC)ccc2c1` (centres unmarked) [Example 190] was run?
Answer: Its IC50 is 979 nM.

Question: How did the IC50 turn out when `COc1ccc2cc(C(=O)C3CN(C4CCC4)CCN3Cc3ccccc3)ccc2c1` (centres unmarked) [Example 191, (1-benzyl-4-cyclobutyl-piperazin-2-yl)-(6-methoxy-2-naphthyl)methanone] was run?
Answer: The IC50 was 102 nM.

Question: With `COc1ccc2cc(C(=O)C3CN(C4CCC4)CCN3CC3CC3)ccc2c1` (centres unmarked) [Example 192, [4-cyclobutyl-1-(cyclopropylmethyl)piperazin-2-yl]-(6-methoxy-2-naphthyl)methanone] as the molecule, how does the IC50 read?
Answer: The IC50 was 385 nM.

Question: How did the IC50 turn out when `COc1ccc2cc(C(=O)C3CN(C4CCC4)CCN3Cc3cccc(C#N)c3)ccc2c1` (centres unmarked) [Example 193, 3-[[4-cyclobutyl-2-(6-methoxynaphthalene-2-carbonyl)piperazin-1-yl]methyl]benzonitrile] was run?
Answer: The IC50 was 22.3 nM.

Question: Which IC50 does the source give for `COc1ccc2cc(C(=O)C3CN(C4CCC4)CCN3C)ccc2c1` (centres unmarked) [Example 194, (4-cyclobutyl-1-methyl-piperazin-2-yl)-(6-methoxy-2-naphthyl)methanone] here?
Answer: The IC50 was 1700 nM.

Question: For `COc1ccc2cc(C(=O)C3CN(C4CCC4)CCN3Cc3ccccc3C#N)ccc2c1` (centres unmarked) [Example 195, 2-[[4-cyclobutyl-2-(6-methoxynaphthalene-2-carbonyl)piperazin-1-yl]methyl]benzonitrile], which IC50 is on record?
Answer: Its IC50 is 176 nM.

Question: `COc1ccc2cc(C(=O)C3CN(C4CCC4)CCN3Cc3ccc(C)cc3)ccc2c1` (centres unmarked) [Example 196, [4-cyclobutyl-1-(p-tolylmethyl)piperazin-2-yl]-(6-methoxy-2-naphthyl)methanone] was tested. Which IC50 did it give?
Answer: The IC50 was 138 nM.

Question: `COc1ccc2cc(C(=O)C3CN(C4CCC4)CCN3Cc3ccc4ccccc4c3)ccc2c1` (centres unmarked) [Example 197, [4-cyclobutyl-1-(2-naphthylmethyl)piperazin-2-yl]-(6-methoxy-2-naphthyl)methanone] was tested. Which IC50 did it give?
Answer: Its IC50 is 165 nM.

Question: Which IC50 does the source give for `COc1ccc2cc(C(=O)C3CN(C4CCC4)CCN3Cc3cccc(C(F)(F)F)c3)ccc2c1` (centres unmarked) [Example 198, [4-cyclobutyl-1-[[3-(trifluoromethyl)phenyl]methyl]piperazin-2-yl]-(6-methoxy-2-naphthyl)methanone] here?
Answer: Its IC50 is 302 nM.

Question: With `COc1ccc2cc(C(=O)C3CN(C4CCC4)CCN3Cc3ccc(C#N)cc3)ccc2c1` (centres unmarked) [Example 199, 4-[[4-cyclobutyl-2-(6-methoxynaphthalene-2-carbonyl)piperazin-1-yl]methyl]benzonitrile] as the molecule, how does the IC50 read?
Answer: Its IC50 is 30.9 nM.

Question: For “(1-(cyclopropylmethyl)-4-methylpiperidin-3-yl)(6-methoxynaphthalen-2-yl)methanone [Example 137a]”, which IC50 is on record?
Answer: Its IC50 is 70.6 nM.
